Laboratory results taken from patent US20090281049A1, “New use of ginsenoside compound-k in manufacturing medicaments” (priority 2006, published 2009).

Tests used:
[1] = system: carrageenan-induced acute inflammation in rats; experiment: Carrageenan-induced paw edema in rats; assay type: in vivo, Rat, SD strain
Procedure: Animals were firstly divided into large dose group: 10 mg/kg, iv, medium dose group: 5 mg/kg, iv, small dose group: 2.5 mg/kg, iv, an Indomethacin group: 1 mg/kg, po and a blank control group: physiological saline 10 mg/kg, iv. The animals were administered by the foregoing method for 3 days. The volume of the right hind paw of the rats was measured using hydroplethismometer before inflammation induced. 1 hour after the last administration, 0.1 ml 1% carrageenan was injected into the plantar surface of the right hind paw in order to induce inflammation. The volume of the right hind paw of the rats was measured by hydroplethismometer every other hour thereafter respectively. Swell rate and inhibition rate were calculated by the same method as above. Differences among groups were compared with t test.

[2] = system: Adjuvant Arthritis in rats; experiment: Treatment effect on adjuvant induced adjuvant arthritis in rats; assay type: in vivo, Rat, SD strain
Procedure: Freund's Adjuvant Complete, purchased from Sigma Company, was injected into the plantar surface of the right hind paw by 0.1 ml in order to induce inflammation in rats.
Animals were firstly divided into large dose group: 10 mg/kg, iv, medium dose group: 5 mg/kg, iv, small dose group: 2.5 mg/kg, iv, Indomethacin group: 1 mg/kg, po, Tripterygium Wilfordii Hook group: 1.5 mg/kg, po. and blank control group: physiological saline 10 mg/kg, iv. The volume of the right hind paw of the rats was measured by using hydroplethismometer before inflammation induced. Then 0.1 ml Freund's Adjuvant Complete was injected into the plantar surface of the right hind paw in order to induce inflammation in rats. 20 days after inflammation induced, the rats were grouped by the foregoing division method and to be administered for 8 days. The volume of paw was measured in regular intervals. Swell rate and inhibition rate were calculated with the same method as the foregoing. Differences among groups were compared with t test.

[3] = mice, 360 mg/kg iv

With `CC(C)=CCC[C@](C)(O[C@@H]1O[C@H](CO)[C@@H](O)[C@H](O)[C@H]1O)[C@H]1CC[C@]2(C)[C@@H]1[C@H](O)C[C@@H]1[C@@]3(C)CC[C@H](O)C(C)(C)[C@@H]3CC[C@]12C` [Ginsenoside Compound-K, ginsenoside Compound-K] the swell value ([1]; 2.5 mg/kg iv, 0 h) was 1.33 ± 0.08 mL, the inhibition rate ([1]; 2.5 mg/kg iv, 1 h) was <13.97> % and the swell rate ([1]; 2.5 mg/kg iv, 1 h) was “(20.22 ± 9.99) %”. The swell value ([1]; 2.5 mg/kg iv, 1 h) was 1.59 ± 0.08 mL, the inhibition rate ([1]; 2.5 mg/kg iv, 2 h) was <8.80> % and the swell rate ([1]; 2.5 mg/kg iv, 2 h) was “(29.40 ± 12.71) %”. The swell value ([1]; 2.5 mg/kg iv, 2 h) was 1.71 ± 0.13 mL, the inhibition rate ([1]; 2.5 mg/kg iv, 3 h) was <16.54> % and the swell rate ([1]; 2.5 mg/kg iv, 3 h) was “(34.80 ± 14.01) %”. For the same compound, the swell value ([1]; 2.5 mg/kg iv, 3 h) was 1.79 ± 0.14 mL, the inhibition rate ([1]; 2.5 mg/kg iv, 4 h) was <24.08> % and the swell rate ([1]; 2.5 mg/kg iv, 4 h) was “(29.49 ± 13.86) %”. The swell value ([1]; 2.5 mg/kg iv, 4 h) was 1.71 ± 0.12 mL, the inhibition rate ([1]; 2.5 mg/kg iv, 5 h) was <15.78> % and the swell rate ([1]; 2.5 mg/kg iv, 5 h) was “(31.22 ± 14.12) %”. The swell value ([1]; 2.5 mg/kg iv, 5 h) was 1.74 ± 0.12 mL, the swell value ([1]; 5 mg/kg iv, 0 h) was 1.39 ± 0.12 mL and the inhibition rate ([1]; 5 mg/kg iv, 1 h) was <49.51> %. For the same compound, the swell rate ([1]; 5 mg/kg iv, 1 h) was “(11.87 ± 6.23) %”, the swell value ([1]; 5 mg/kg iv, 1 h) was 1.55 ± 0.11 mL and the inhibition rate ([1]; 5 mg/kg iv, 2 h) was <42.44> %. The swell rate ([1]; 5 mg/kg iv, 2 h) was “(18.56 ± 9.77) %”, the swell value ([1]; 5 mg/kg iv, 2 h) was 1.64 ± 0.09 mL and the inhibition rate ([1]; 5 mg/kg iv, 3 h) was <32.62> %. The swell rate ([1]; 5 mg/kg iv, 3 h) was “(28.09 ± 11.34) %”, the swell value ([1]; 5 mg/kg iv, 3 h) was 1.77 ± 0.12 mL and the inhibition rate ([1]; 5 mg/kg iv, 4 h) was <48.22> %. For the same compound, the swell rate ([1]; 5 mg/kg iv, 4 h) was “(20.11 ± 11.20) %”, the swell value ([1]; 5 mg/kg iv, 4 h) was 1.66 ± 0.13 mL and the inhibition rate ([1]; 5 mg/kg iv, 5 h) was <53.80> %. The swell rate ([1]; 5 mg/kg iv, 5 h) was “(17.13 ± 10.13) %”, the swell value ([1]; 5 mg/kg iv, 5 h) was 1.62 ± 0.11 mL and the swell value ([1]; 10 mg/kg iv, 0 h) was 1.42 ± 0.10 mL. For the same compound, the inhibition rate ([1]; 10 mg/kg iv, 1 h) was <72.87> %, the swell rate ([1]; 10 mg/kg iv, 1 h) was “(6.38 ± 7.44) %” and the swell value ([1]; 10 mg/kg iv, 1 h) was 1.51 ± 0.10 mL. The inhibition rate ([1]; 10 mg/kg iv, 2 h) was <56.96> %, the swell rate ([1]; 10 mg/kg iv, 2 h) was “(13.87 ± 8.55) %” and the swell value ([1]; 10 mg/kg iv, 2 h) was 1.62 ± 0.11 mL. The inhibition rate ([1]; 10 mg/kg iv, 3 h) was <61.49> %, the swell rate ([1]; 10 mg/kg iv, 3 h) was “(16.06 ± 12.41) %” and the swell value ([1]; 10 mg/kg iv, 3 h) was 1.65 ± 0.16 mL. The inhibition rate ([1]; 10 mg/kg iv, 4 h) was <70.38> %, the swell rate ([1]; 10 mg/kg iv, 4 h) was “(11.51 ± 9.76) %” and the swell value ([1]; 10 mg/kg iv, 4 h) was 1.58 ± 0.14 mL. The inhibition rate ([1]; 10 mg/kg iv, 5 h) was <78.23> %, the swell rate ([1]; 10 mg/kg iv, 5 h) was “(8.07 ± 10.88) %” and the swell value ([1]; 10 mg/kg iv, 5 h) was 1.53 ± 0.12 mL. The “overall effect on carrageenan-induced acute inflammation” value ([1]; rats, 10, 5, 2.5 mg/kg iv) was “able to inhibit carrageenan-induced acute inflammation in rats obviously”, the swell value ([2]; 2.5 mg/kg iv, 0 day) was 1.06 ± 0.09 mL and the inhibition rate ([2]; 2.5 mg/kg iv, 19 day) was <14.36> %. For the same compound, the swell rate ([2]; 2.5 mg/kg iv, 19 day) was “(84.26 ± 14.31) %”, the swell value ([2]; 2.5 mg/kg iv, 19 day) was 1.96 ± 0.16 mL and the inhibition rate ([2]; 2.5 mg/kg iv, 21 day) was <15.81> %. For the same compound, the swell rate ([2]; 2.5 mg/kg iv, 21 day) was “(89.42 ± 18.47) %”, the swell value ([2]; 2.5 mg/kg iv, 21 day) was 2.00 ± 0.07 mL and the inhibition rate ([2]; 2.5 mg/kg iv, 23 day) was <24.02> %. The swell rate ([2]; 2.5 mg/kg iv, 23 day) was “(80.92 ± 16.84) %”, the swell value ([2]; 2.5 mg/kg iv, 23 day) was 1.91 ± 0.08 mL and the inhibition rate ([2]; 2.5 mg/kg iv, 26 day) was <27.71> %. The swell rate ([2]; 2.5 mg/kg iv, 26 day) was “(81.13 ± 10.03) %”, the swell value ([2]; 2.5 mg/kg iv, 26 day) was 1.92 ± 0.08 mL and the inhibition rate ([2]; 2.5 mg/kg iv, 30 day) was <19.36> %. The swell rate ([2]; 2.5 mg/kg iv, 30 day) was “(84.80 ± 19.66) %”, the swell value ([2]; 2.5 mg/kg iv, 30 day) was 1.96 ± 0.16 mL and the swell value ([2]; 5 mg/kg iv, 0 day) was 1.10 ± 0.09 mL. The inhibition rate ([2]; 5 mg/kg iv, 19 day) was <17.31> %, the swell rate ([2]; 5 mg/kg iv, 19 day) was “(81.36 ± 13.10) %” and the swell value ([2]; 5 mg/kg iv, 19 day) was 2.00 ± 0.12 mL. For the same compound, the inhibition rate ([2]; 5 mg/kg iv, 21 day) was <20.85> %, the swell rate ([2]; 5 mg/kg iv, 21 day) was “(84.07 ± 18.91) %” and the swell value ([2]; 5 mg/kg iv, 21 day) was 2.03 ± 0.20 mL. The inhibition rate ([2]; 5 mg/kg iv, 23 day) was <23.19> %, the swell rate ([2]; 5 mg/kg iv, 23 day) was “(81.81 ± 14.58) %” and the swell value ([2]; 5 mg/kg iv, 23 day) was 2.01 ± 0.23 mL. The inhibition rate ([2]; 5 mg/kg iv, 26 day) was <27.40> %, the swell rate ([2]; 5 mg/kg iv, 26 day) was “(81.48 ± 11.30) %” and the swell value ([2]; 5 mg/kg iv, 26 day) was 2.00 ± 0.19 mL. For the same compound, the inhibition rate ([2]; 5 mg/kg iv, 30 day) was <20.33> %, the swell rate ([2]; 5 mg/kg iv, 30 day) was “(83.77 ± 17.65) %” and the swell value ([2]; 5 mg/kg iv, 30 day) was 2.03 ± 0.25 mL. For the same compound, the swell value ([2]; 10 mg/kg iv, 0 day) was 1.05 ± 0.09 mL, the inhibition rate ([2]; 10 mg/kg iv, 19 day) was <9.69> % and the swell rate ([2]; 10 mg/kg iv, 19 day) was “(88.85 ± 23.27) %”. For the same compound, the swell value ([2]; 10 mg/kg iv, 19 day) was 1.97 ± 0.24 mL, the inhibition rate ([2]; 10 mg/kg iv, 21 day) was <31.57> % and the swell rate ([2]; 10 mg/kg iv, 21 day) was “(72.69 ± 29.97) %”. For the same compound, the swell value ([2]; 10 mg/kg iv, 21 day) was 1.81 ± 0.33 mL, the inhibition rate ([2]; 10 mg/kg iv, 23 day) was <31.92> % and the swell rate ([2]; 10 mg/kg iv, 23 day) was “(72.50 ± 22.18) %”. For the same compound, the swell value ([2]; 10 mg/kg iv, 23 day) was 1.80 ± 0.21 mL, the inhibition rate ([2]; 10 mg/kg iv, 26 day) was <36.15> % and the swell rate ([2]; 10 mg/kg iv, 26 day) was “(71.66 ± 24.46) %”. For the same compound, the swell value ([2]; 10 mg/kg iv, 26 day) was 1.79 ± 0.24 mL, the inhibition rate ([2]; 10 mg/kg iv, 30 day) was <32.32> % and the swell rate ([2]; 10 mg/kg iv, 30 day) was “(71.17 ± 17.97) %”. The swell value ([2]; 10 mg/kg iv, 30 day) was 1.80 ± 0.26 mL, the “overall treatment effect on Adjuvant Arthritis” value ([2]; rats, 10, 5, 2.5 mg/kg iv for 8 days from day 20) was “able to cure Adjuvant Arthritis in rats” and the “behaviour after intravenous injection” value [3] was “their act was normal and no behavior out of the way was observed”.
